According to patent publication US8153809B2, “Dihydropyridone ureas as P2X7 modulators” (Roche Palo Alto LLC, priority 2008, dated 2012):

The compounds below were run against T1, P2X7 (UniProt Q99572) (assay: pIC50 values for P2X7 (Table 1)).
T1 sequence (Q99572 1-595): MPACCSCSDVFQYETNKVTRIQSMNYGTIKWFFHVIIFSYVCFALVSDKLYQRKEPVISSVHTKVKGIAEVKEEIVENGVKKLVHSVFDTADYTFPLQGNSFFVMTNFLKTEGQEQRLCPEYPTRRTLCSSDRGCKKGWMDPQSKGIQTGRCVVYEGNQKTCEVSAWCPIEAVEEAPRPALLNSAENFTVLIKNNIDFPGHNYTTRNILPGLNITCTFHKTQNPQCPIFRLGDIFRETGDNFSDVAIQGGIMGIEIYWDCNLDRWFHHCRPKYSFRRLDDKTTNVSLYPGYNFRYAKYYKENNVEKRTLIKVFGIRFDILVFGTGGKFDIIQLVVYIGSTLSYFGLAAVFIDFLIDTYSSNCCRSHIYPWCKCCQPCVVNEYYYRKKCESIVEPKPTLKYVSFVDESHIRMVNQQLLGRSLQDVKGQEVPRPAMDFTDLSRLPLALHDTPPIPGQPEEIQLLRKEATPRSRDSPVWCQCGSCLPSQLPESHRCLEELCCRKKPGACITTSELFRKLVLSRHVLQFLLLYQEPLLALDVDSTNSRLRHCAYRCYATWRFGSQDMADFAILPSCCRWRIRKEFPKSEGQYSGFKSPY
Type: cell-based
Procedure: Intracellular Calcium Flux (FLIPR) Assay
Compound and Reagent Preparation
Stock solutions of compounds were prepared from powders as a 10 mM DMSO stock solution. These solutions were stored at RT during the two week period of these experiments to prevent freeze-thaw of the DMSO stocks. The DMSO stocks were added to the appropriate assay buffer at a concentration of 10 μM, and then diluted serially to the final concentrations that were tested. […] The aqueous solutions of compounds as well as ATP (Sigma A7699) and BzATP (Sigma B6396) were prepared fresh for each day of experiment.
1321N1 cells stably expressing the full length human P2X7 gene (1321N1-hP2X7) and HEK293 cells stably expressing the full length rat P2X7 gene (HEK293-rP2X7) were obtained from the Roche Cell Culture Facility. 1321N1-hP2X7 cells were grown in Dulbecco's Modified Eagle's Medium (DMEM) high glucose supplemented with 10% FBS and 250 μg/mL G418. HEK293-rP2X7 cells were grown in DMEM/F-12 supplemented with 10% FBS, 1 mM CaCl2, 2 mM MgCl2, 2 mM L-Glutamine and 500 μg/ml G418. Cells were split such that they never became >70% confluent.
Intracellular Calcium Flux (FLIPR)
On the day prior to the experiment, 1321N1-hP2X7 or HEK293-rP2X7 cells were released into suspension with calcium-free PBS+Versene and washed by centrifugation with calcium-free PBS to remove the Versene.
On the day of the experiment, plates were washed with FLIPR buffer (calcium- and magnesium-free Hank's Balanced Salt Solution (HBSS) supplemented with 10 mM Hepes, 2.5 mM probenecid and 2 mM calcium chloride) using a BIO-TEK 96 channel plate washer and incubated with […] fluo-3 dye at 37° C. for one hr. The dye was then removed by plate washing and the cells were allowed to equilibrate for 20 min at room temperature with antagonist or vehicle (FLIPR buffer). Agonist (100 μM BzATP final concentration for hP2X7; 5 μM BzATP final concentration or rP2X7) was added online with the FLIPR and fluorescence measurements made at 1 sec intervals for 60 sec followed by 3 sec intervals for a further 4 min (5 min total). A final addition of 5 μM ionomycin was made and the maximal BzATP-evoked fluorescence normalized to the maximal ionomycin-evoked fluorescence.

SMILES	pIC50
O=C1C=CN(C(=O)Nc2cc(OCCO)c(Cl)cc2Br)[C@H](c2cccc(F)c2)C1 [Compound 50, (S)-2-(3-Fluoro-phenyl)-4-oxo-3,4-dihydro-2H-pyridine-1-carboxylic acid [2-bromo-4-chloro-5-(2-hydroxy-ethoxy)-phenyl]-amide]	7.407
CC(=O)c1cc(NC(=O)N2C=CC(=O)C[C@H]2c2ccc(F)cc2)c(Br)cc1Cl [Compound 51, (S)-2-(4-Fluoro-phenyl)-4-oxo-3,4-dihydro-2H-pyridine-1-carboxylic acid (5-acetyl-2-bromo-4-chloro-phenyl)-amide]	6.857
Cn1ccc2ccc(NC(=O)N3C=CC(=O)CC3c3ccc(F)cc3)cc21 (centres unmarked) [Compound 52, 2-(4-Fluoro-phenyl)-4-oxo-3,4-dihydro-2H-pyridine-1-carboxylic acid (1-methyl-1H-indol-6-yl)-amide]	7.065
COc1ccc(C)c(NC(=O)N2C=CC(=O)C[C@H]2c2cccc(F)c2)c1 [Compound 53, (S)-2-(3-Fluoro-phenyl)-4-oxo-3,4-dihydro-2H-pyridine-1-carboxylic acid (5-methoxy-2-methyl-phenyl)-amide]	8.01
CS(=O)(=O)CCCOc1cc(NC(=O)N2C=CC(=O)C[C@H]2c2ccc(F)cc2)c(Br)cc1Cl [Compound 54, (S)-2-(4-Fluoro-phenyl)-4-oxo-3,4-dihydro-2H-pyridine-1-carboxylic acid [2-bromo-4-chloro-5-(3-methanesulfonyl-propoxy)-phenyl]-amide]	6.38
COc1cc(NC(=O)N2C=CC(=O)C[C@H]2c2ccc(F)cc2)c(Br)cc1C(=O)OC(C)(C)C [Compound 55, 5-Bromo-4-{[(S)-2-(4-fluoro-phenyl)-4-oxo-3,4-dihydro-2H-pyridine-1-carbonyl]-amino}-2-methoxy-benzoic acid tert-butyl ester]	5.845
COc1ccc(S(C)(=O)=O)cc1NC(=O)N1C=CC(=O)CC1c1ccc(F)cc1 (centres unmarked) [Compound 56, 2-(4-Fluoro-phenyl)-4-oxo-3,4-dihydro-2H-pyridine-1-carboxylic acid (5-methanesulfonyl-2-methoxy-phenyl)-amide]	5.11
CC(O)c1cc(NC(=O)N2C=CC(=O)C[C@H]2c2ccc(F)cc2)c(Br)cc1Cl (stereo partly drawn) [Compound 57, (S)-2-(4-Fluoro-phenyl)-4-oxo-3,4-dihydro-2H-pyridine-1-carboxylic acid [2-bromo-4-chloro-5-(1-hydroxy-ethyl)-phenyl]-amide]	7.42
Cc1cc(F)c(NC(=O)N2C=CC(=O)C[C@H]2c2cccc(F)c2)cc1OCCO [Compound 58, (S)-2-(3-Fluoro-phenyl)-4-oxo-3,4-dihydro-2H-pyridine-1-carboxylic acid [2-fluoro-5-(2-hydroxy-ethoxy)-4-methyl-phenyl]-amide]	6.43
Cc1cc(F)c(NC(=O)N2C=CC(=O)C[C@H]2c2ccc(F)cc2)cc1OCCO [Compound 59, (S)-2-(4-Fluoro-phenyl)-4-oxo-3,4-dihydro-2H-pyridine-1-carboxylic acid [2-fluoro-5-(2-hydroxy-ethoxy)-4-methyl-phenyl]-amide]	6.62
COc1cc(NC(=O)N2C=CC(=O)C[C@H]2c2ccc(F)cc2)c(Br)cc1C(N)=O [Compound 60, (S)-2-(4-Fluoro-phenyl)-4-oxo-3,4-dihydro-2H-pyridine-1-carboxylic acid (2-bromo-4-carbamoyl-5-methoxy-phenyl)-amide]	5.78
O=C1C=CN(C(=O)Nc2cc3c(cc2Br)OC(F)(F)O3)[C@H](c2ccc(F)cc2)C1 [Compound 61, (S)-2-(4-Fluoro-phenyl)-4-oxo-3,4-dihydro-2H-pyridine-1-carboxylic acid (6-bromo-2,2-difluoro-benzo[1,3]dioxol-5-yl)-amide]	6.365
O=C1C=CN(C(=O)Nc2c(F)cccc2F)C(c2ccc(F)cc2)C1 (centres unmarked) [Compound 62, 2-(4-Fluoro-phenyl)-4-oxo-3,4-dihydro-2H-pyridine-1-carboxylic acid (2,6-difluoro-phenyl)-amide]	5.51

Next, values leading:

pIC50	SMILES
6.74	COc1cc(NC(=O)N2C=CC(=O)C[C@H]2c2ccc(F)cc2)c(Br)cc1C#N [Compound 63, (S)-2-(4-Fluoro-phenyl)-4-oxo-3,4-dihydro-2H-pyridine-1-carboxylic acid (2-bromo-4-cyano-5-methoxy-phenyl)-amide]
5.98	O=C1C=CN(C(=O)NC23CC4CC(CC(C4)C2)C3)C(c2ccc(F)cc2)C1 (centres unmarked) [Compound 64, 2-(4-Fluoro-phenyl)-4-oxo-3,4-dihydro-2H-pyridine-1-carboxylic acid adamantan-1-ylamide]
6.23	COc1ccc(OC)c(NC(=O)N2C=CC(=O)CC2c2ccc(F)cc2)c1 (centres unmarked) [Compound 65, 2-(4-Fluoro-phenyl)-4-oxo-3,4-dihydro-2H-pyridine-1-carboxylic acid (2,5-dimethoxy-phenyl)-amide]
6.8	COC(=O)c1cccc(NC(=O)N2C=CC(=O)CC2c2ccc(F)cc2)c1C (centres unmarked) [Compound 66, 3-{[2-(4-Fluoro-phenyl)-4-oxo-3,4-dihydro-2H-pyridine-1-carbonyl]-amino}-2-methyl benzoic acid methyl ester]
6.31	COc1cccc(NC(=O)N2C=CC(=O)CC2c2ccc(F)cc2)c1 (centres unmarked) [Compound 67, 2-(4-Fluoro-phenyl)-4-oxo-3,4-dihydro-2H-pyridine-1-carboxylic acid (3-methoxy-phenyl)-amide]
6.07	COc1ccc(NC(=O)N2C=CC(=O)CC2c2ccc(F)cc2)c(OC)c1 (centres unmarked) [Compound 69, 2-(4-Fluoro-phenyl)-4-oxo-3,4-dihydro-2H-pyridine-1-carboxylic acid (2,4-dimethoxy-phenyl)-amide]
6.84	COc1cc(NC(=O)N2C=CC(=O)C[C@H]2c2cccc(F)c2)ccc1C [Compound 70, (S)-2-(3-Fluoro-phenyl)-4-oxo-3,4-dihydro-2H-pyridine-1-carboxylic acid (3-methoxy-4-methyl-phenyl)-amide]
6.245	COc1cc(NC(=O)N2C=CC(=O)C[C@H]2c2ccc(F)cc2)ccc1Cl [Compound 71, (S)-2-(4-Fluoro-phenyl)-4-oxo-3,4-dihydro-2H-pyridine-1-carboxylic acid (4-chloro-3-methoxy-phenyl)-amide]
6.295	COc1cc(NC(=O)N2C=CC(=O)C[C@H]2c2cccc(F)c2)ccc1Cl [Compound 72, (S)-2-(3-Fluoro-phenyl)-4-oxo-3,4-dihydro-2H-pyridine-1-carboxylic acid (4-chloro-3-methoxy-phenyl)-amide]
6.83	COc1cc(NC(=O)N2C=CC(=O)C[C@H]2c2cccc(F)c2)ccc1F [Compound 73, (S)-2-(3-Fluoro-phenyl)-4-oxo-3,4-dihydro-2H-pyridine-1-carboxylic acid (4-fluoro-3-methoxy-phenyl)-amide]
7.35	Cc1cc2ncccc2cc1NC(=O)N1C=CC(=O)C[C@H]1c1ccc(F)cc1 [Compound 74, (S)-2-(4-Fluoro-phenyl)-4-oxo-3,4-dihydro-2H-pyridine-1-carboxylic acid (7-methyl-quinolin-6-yl)-amide]
5.075	COc1cc(Br)c(CNC(=O)N2C=CC(=O)CC2c2ccc(F)cc2)cc1OC (centres unmarked) [Compound 75, 2-(4-Fluoro-phenyl)-4-oxo-3,4-dihydro-2H-pyridine-1-carboxylic acid 2-bromo-4,5-dimethoxy-benzylamide]
6.76	COc1cc(NC(=O)N2C=CC(=O)C[C@H]2c2ccc(F)cc2)ccc1F [Compound 76, (S)-2-(4-Fluoro-phenyl)-4-oxo-3,4-dihydro-2H-pyridine-1-carboxylic acid (4-fluoro-3-methoxy-phenyl)-amide]
